Molecular target: WNV NS5 WT
Experiment: MTase-Glo luminescence methyltransferase assay
Format: biochemical, Orthoflavivirus nilense
Settings: poly-A RNA acceptor, 20 µM SAM, pH 9, 30 °C, 25 min; MTase activity

Row | SMILES | IC50 [µM]
1 | Nc1ncnc2c1ncn2[C@@H]1O[C@H](CNC(=O)C(c2ccccc2)(c2ccccc2)c2ccccc2)[C@@H](O)[C@H]1O [compound 1, 5´-(2,2,2-triphenylacetamide)-5´-deoxyadenosine] | 21.6 ± 11.1
2 | Nc1ncnc2c1ncn2[C@@H]1O[C@H](C[C@@H](N)CC[C@H](N)C(=O)O)[C@@H](O)[C@H]1O [sinefungin] | 3.6 ± 1.8
